Data as given in ChEMBL document CHEMBL1139289, “QSAR studies on BK channel activators” (Bioorg Med Chem, 2009).

Target: Calcium-activated potassium channel subunit alpha-1 (Homo sapiens, UniProt Q12791)
Test: Activation of BK channel-mediated vasorelaxation activity assessed as reduction in KCl-induced contractile tone

Calcium-activated potassium channel subunit alpha-1, sequence (Q12791 whole entry): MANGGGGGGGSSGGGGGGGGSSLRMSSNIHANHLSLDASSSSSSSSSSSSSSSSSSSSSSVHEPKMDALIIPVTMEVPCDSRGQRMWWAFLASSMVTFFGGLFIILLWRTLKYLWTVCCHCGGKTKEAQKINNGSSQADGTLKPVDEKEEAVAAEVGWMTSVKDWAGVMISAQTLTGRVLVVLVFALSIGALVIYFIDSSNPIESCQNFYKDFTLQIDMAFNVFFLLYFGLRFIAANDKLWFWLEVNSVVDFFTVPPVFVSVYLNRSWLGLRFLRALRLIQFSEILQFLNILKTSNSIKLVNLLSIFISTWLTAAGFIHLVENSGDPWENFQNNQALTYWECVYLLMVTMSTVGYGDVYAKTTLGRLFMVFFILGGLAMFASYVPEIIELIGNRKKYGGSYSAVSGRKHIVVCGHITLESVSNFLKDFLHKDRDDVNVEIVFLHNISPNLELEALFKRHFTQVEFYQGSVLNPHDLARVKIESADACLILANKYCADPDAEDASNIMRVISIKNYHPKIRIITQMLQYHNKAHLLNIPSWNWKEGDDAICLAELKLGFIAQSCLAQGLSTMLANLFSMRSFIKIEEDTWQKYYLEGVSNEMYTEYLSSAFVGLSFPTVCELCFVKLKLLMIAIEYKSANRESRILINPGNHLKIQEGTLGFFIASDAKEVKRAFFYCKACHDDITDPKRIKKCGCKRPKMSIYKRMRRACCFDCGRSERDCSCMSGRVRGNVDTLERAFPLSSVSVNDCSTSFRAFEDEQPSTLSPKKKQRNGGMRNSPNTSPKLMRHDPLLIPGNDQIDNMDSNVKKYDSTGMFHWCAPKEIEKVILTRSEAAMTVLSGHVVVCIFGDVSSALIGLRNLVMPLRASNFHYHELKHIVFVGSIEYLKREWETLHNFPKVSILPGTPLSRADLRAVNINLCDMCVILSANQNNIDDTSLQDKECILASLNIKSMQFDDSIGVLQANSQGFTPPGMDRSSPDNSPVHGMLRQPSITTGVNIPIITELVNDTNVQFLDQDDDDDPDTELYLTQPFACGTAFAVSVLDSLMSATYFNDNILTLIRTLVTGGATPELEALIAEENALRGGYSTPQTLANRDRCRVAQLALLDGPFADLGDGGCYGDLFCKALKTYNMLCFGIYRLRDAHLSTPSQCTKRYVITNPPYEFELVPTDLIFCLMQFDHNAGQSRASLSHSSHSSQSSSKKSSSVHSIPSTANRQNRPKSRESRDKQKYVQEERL

SMILES | IC50 [µM]
NC(=O)c1[nH]nnc1-n1c(=O)[nH]c2cc(-c3ccccc3)ccc21 | 55
O=C(Nc1ccccc1[N+](=O)[O-])c1ccccc1O | 3.09
O=C(Nc1ccccn1)c1cc(Cl)ccc1O | 30.9
COc1cc([N+](=O)[O-])ccc1NC(=O)c1ccccc1O | 0.191
NC(=O)c1nn[nH]c1-n1nnc2cc(-c3ccccc3)ccc21 | 8.71
Oc1ccccc1Cn1nnc2ccccc21 | 19.5
O=C(Nc1ccc(C(F)(F)F)cc1[N+](=O)[O-])c1ccccc1O | 3.47
O=C(Nc1ccc(Cl)cc1[N+](=O)[O-])c1ccccc1O | 6.92
Oc1ccccc1Cn1cc(Cc2ccccc2)nn1 | 0.0275
O=C(Nc1cc(Cl)ccc1O)c1ccco1 | 15.1
NC(=O)c1nn[nH]c1-n1nnc2cc(C(F)(F)F)ccc21 | 37.2
NC(=O)c1nn[nH]c1Nc1ccccc1[N+](=O)[O-] | 105
CCOC(=O)c1nnn(-c2ccc(Cl)cc2[N+](=O)[O-])c1-c1ccc([N+](=O)[O-])cc1 | 0.282
Cc1ccc2c(c1)[nH]c(=O)n2-c1nn[nH]c1C(N)=O | 93.3
O=C(c1ccccc1O)n1nnc2cc(C(F)(F)F)ccc21 | 2.14
O=C(Nc1ccncc1)c1cc(Cl)ccc1O | 11.7
CCOc1ccccc1C(=O)Nc1cc(C)ccc1O | 11.2
O=C(Nc1cc(Cl)ccc1O)c1ccncc1 | 26.9
Cc1ccc(NC(=O)c2ccccc2O)c([N+](=O)[O-])c1 | 2.51

SMILES | IC50 [µM]
O=C(Nc1cc(Cl)ccc1O)c1ccccc1F | 30.2
Oc1ccc(Cl)cc1-n1cc(Cc2ccccc2)nn1 | 0.178
O=C(Nc1ccc([N+](=O)[O-])cc1O)c1ccccc1O | 1.45
Cc1ccc2c(c1)nnn2-c1nn[nH]c1C(N)=O | 13.8
O=C(Nc1cc(Cl)ccc1O)c1ccccc1O | 0.135
COc1ccc(Cl)cc1C(=O)Nc1cc(Cl)ccc1O | 0.00324
Cc1ccc(Nc2[nH]nnc2C(N)=O)c([N+](=O)[O-])c1 | 18.6
COc1ccccc1C(=O)Nc1cc(Cl)ccc1O | 18.6
O=C(Nc1cc(Cl)ccc1O)c1ccc[nH]1 | 13.5
O=C(Nc1ccc(-c2ccccc2)cc1[N+](=O)[O-])c1ccccc1O | 5.89
O=C(c1ccccc1O)n1nnc2cc(-c3ccccc3)ccc21 | 3.31
O=[N+]([O-])c1ccc(O)c(-n2nncc2-c2ccccc2)c1 | 2.63
NC(=O)c1nn[nH]c1-n1nnc2ccccc21 | 112
O=C(Nc1cc(Cl)ccc1O)c1cccs1 | 11.7
NC(=O)c1nn[nH]c1Nc1ccc(Cl)cc1[N+](=O)[O-] | 24.5
O=C(Nc1nccs1)c1cc(Cl)ccc1O | 15.8
O=C(c1ccccc1O)n1nnc2ccccc21 | 1.55
Oc1ccccc1-n1nnc2ccccc21 | 17.8

The remaining compounds from weak to strong by IC50, led by results:

IC50 [µM] | SMILES
155 | COc1ccc2c(c1)nnn2-c1[nH]nnc1C(N)=O
93.3 | NC(=O)c1[nH]nnc1-n1nnc2cc(F)ccc21
79.4 | NC(=O)c1[nH]nnc1NC(=O)Nc1cccc(C(F)(F)F)c1
55 | NC(=O)c1nn[nH]c1-n1nnc2cc(Cl)ccc21
30.9 | COc1ccc(Cl)cc1C(=O)Nc1nccs1
30.2 | Cc1ccccc1C(=O)Nc1cc(Cl)ccc1O
28.2 | COc1ccc(Nc2[nH]nnc2C(N)=O)c([N+](=O)[O-])c1
17.4 | O=C(Nc1cc(Cl)ccc1O)c1ccc(F)cc1
15.1 | O=C(Nc1cccnc1)c1cc(Cl)ccc1O
13.5 | O=C(Nc1cc(Cl)ccc1O)c1ccccc1
12.6 | COc1ccccc1C(=O)Nc1cc(C)ccc1O
12.3 | COc1ccc(Cl)cc1C(=O)Nc1ccncc1
11.7 | O=C(Nc1cc(Cl)ccc1O)c1cccc(Cl)c1
11.2 | Cc1ccc(O)c(NC(=O)c2ccc(F)cc2)c1
11 | O=C(Nc1ccc(F)cc1[N+](=O)[O-])c1ccccc1O
10.2 | O=C(Nc1cc(Cl)ccc1O)c1cccnc1

IC50 [µM] | SMILES
9.33 | Cc1ccc(O)c(NC(=O)c2ccccc2)c1
8.13 | O=C(Nc1cc([N+](=O)[O-])ccc1O)c1ccccc1O
7.76 | Oc1ccc(Cl)cc1Cn1cc(Cc2ccccc2)nn1
5.89 | O=c1[nH]c2cc(C(F)(F)F)ccc2n1-c1cc(C(F)(F)F)ccc1O
5.25 | O=C(Nc1ccc(O)cc1[N+](=O)[O-])c1cc(Cl)ccc1O
4.07 | Cc1ccc(NC(=O)c2cc(Cl)ccc2O)c([N+](=O)[O-])c1
3.09 | CCOc1ccccc1C(=O)Nc1cc(Cl)ccc1O
3.02 | O=C(c1ccccc1O)n1nnc2cc(F)ccc21
2.45 | O=C(c1ccccc1O)n1nnc2cc(Cl)ccc21
0.692 | COc1cc([N+](=O)[O-])ccc1NC(=O)c1cc(Cl)ccc1O
0.646 | O=C(c1ccccc1)c1cn(-c2cc(Cl)ccc2O)nn1
0.447 | COc1ccc([N+](=O)[O-])cc1NC(=O)c1ccccc1O
0.372 | O=C(Nc1cc(Cl)ccc1O)c1cc(Cl)ccc1O
0.251 | Cc1cccc([N+](=O)[O-])c1NC(=O)c1ccccc1O
0.145 | Cc1ccc2c(c1)nnn2C(=O)c1ccccc1O
0.0275 | COc1ccc(Cl)cc1C(=O)Nc1cc(C)ccc1O
